Test results: PubChem BioAssay (NCI)
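Assay format: 96-well plates, 48-hour exposure. GI50 = concentration required for 50% inhibition of growth. TGI is the concentration that stops growth completely.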

Columns and labels:
Test in all cases: growth of human tumour cells (NCI), 48 h
786-0 renal = system: 786-0 renal
A498 renal = system: A498 renal
A549 NSCLC = system: A549 NSCLC
ACHN renal = system: ACHN renal
BT-549 breast = system: BT-549 breast
CAKI-1 renal = system: CAKI-1 renal
CCRF-CEM leukemia = system: CCRF-CEM leukemia
COLO 205 colon = system: COLO 205 colon
DU-145 prostate = system: DU-145 prostate
EKVX NSCLC = system: EKVX NSCLC
HCC-2998 colon = system: HCC-2998 colon
HCT-116 colon = system: HCT-116 colon
HCT-15 colon = system: HCT-15 colon
HL-60(TB) leukemia = system: HL-60(TB) leukemia
HOP-62 NSCLC = system: HOP-62 NSCLC
HOP-92 NSCLC = system: HOP-92 NSCLC
HS 578T breast = system: HS 578T breast
HT29 colon = system: HT29 colon
IGROV1 ovarian = system: IGROV1 ovarian
K-562 leukemia = system: K-562 leukemia
KM12 colon = system: KM12 colon
LOX IMVI melanoma = system: LOX IMVI melanoma
M14 melanoma = system: M14 melanoma
MALME-3M melanoma = system: MALME-3M melanoma
MCF7 breast = system: MCF7 breast
MDA-MB-231 breast = system: MDA-MB-231 breast
MDA-MB-435 = system: MDA-MB-435
MOLT-4 leukemia = system: MOLT-4 leukemia
NCI-H226 lung = system: NCI-H226 lung
NCI-H23 lung = system: NCI-H23 lung
NCI-H460 lung = system: NCI-H460 lung
NCI-H522 lung = system: NCI-H522 lung
NCI/ADR-RES ovarian = system: NCI/ADR-RES ovarian
OVCAR-3 ovarian = system: OVCAR-3 ovarian
OVCAR-4 ovarian = system: OVCAR-4 ovarian
OVCAR-5 ovarian = system: OVCAR-5 ovarian
OVCAR-8 ovarian = system: OVCAR-8 ovarian
PC-3 prostate = system: PC-3 prostate
RPMI-8226 leukemia = system: RPMI-8226 leukemia
RXF 393 renal = system: RXF 393 renal
SF-268 CNS = system: SF-268 CNS
SF-295 CNS = system: SF-295 CNS
SF-539 CNS = system: SF-539 CNS
SK-MEL-2 melanoma = system: SK-MEL-2 melanoma
SK-MEL-28 melanoma = system: SK-MEL-28 melanoma
SK-MEL-5 melanoma = system: SK-MEL-5 melanoma
SK-OV-3 ovarian = system: SK-OV-3 ovarian
SN12C renal = system: SN12C renal
SNB-19 CNS = system: SNB-19 CNS
SNB-75 CNS = system: SNB-75 CNS
SR leukemia = system: SR leukemia
SW-620 colon = system: SW-620 colon
T-47D breast = system: T-47D breast
TK-10 renal = system: TK-10 renal
U251 CNS = system: U251 CNS
UACC-62 melanoma = system: UACC-62 melanoma
UO-31 renal = system: UO-31 renal

Which results are given for `CC/C=C\C[C@H]1C/C=C2/C(=O)C(Cl)=C[C@@H]2C/C=C\CCCC(=O)O1`?
GI50 (786-0 renal): 0.521 µM; TGI (786-0 renal): 1.19 µM; GI50 (A498 renal): 0.56 µM; TGI (A498 renal): 1.43 µM; GI50 (A549 NSCLC): 0.748 µM; TGI (A549 NSCLC): 2.75 µM; GI50 (ACHN renal): 0.3 µM; TGI (ACHN renal): 0.799 µM; GI50 (BT-549 breast): 0.524 µM; TGI (BT-549 breast): 1.21 µM; GI50 (CAKI-1 renal): 0.45 µM; TGI (CAKI-1 renal): 1.51 µM; GI50 (CCRF-CEM leukemia): 0.143 µM; TGI (CCRF-CEM leukemia): 2.64 µM; GI50 (COLO 205 colon): 0.467 µM; TGI (COLO 205 colon): 0.958 µM; GI50 (DU-145 prostate): 0.517 µM; TGI (DU-145 prostate): 1.85 µM; GI50 (EKVX NSCLC): 0.805 µM; TGI (EKVX NSCLC): 4.62 µM; GI50 (HCC-2998 colon): 0.437 µM; TGI (HCC-2998 colon): 0.826 µM; GI50 (HCT-116 colon): 0.205 µM; TGI (HCT-116 colon): 0.859 µM; GI50 (HCT-15 colon): 0.109 µM; TGI (HCT-15 colon): 0.72 µM; GI50 (HL-60(TB) leukemia): 0.527 µM; TGI (HL-60(TB) leukemia): 2.7 µM; GI50 (HOP-62 NSCLC): 0.49 µM; TGI (HOP-62 NSCLC): 1.31 µM; GI50 (HOP-92 NSCLC): 0.499 µM; TGI (HOP-92 NSCLC): 1.6 µM; GI50 (HS 578T breast): 0.698 µM; TGI (HS 578T breast): 25 µM; GI50 (HT29 colon): 0.325 µM; TGI (HT29 colon): 0.79 µM; GI50 (IGROV1 ovarian): 0.605 µM; TGI (IGROV1 ovarian): 1.94 µM; GI50 (K-562 leukemia): 0.0961 µM; TGI (K-562 leukemia): 3.14 µM; GI50 (KM12 colon): 0.403 µM; TGI (KM12 colon): 1.07 µM; GI50 (LOX IMVI melanoma): 0.159 µM; TGI (LOX IMVI melanoma): 0.52 µM; GI50 (M14 melanoma): 0.681 µM; TGI (M14 melanoma): 3.08 µM; GI50 (MALME-3M melanoma): 0.398 µM; TGI (MALME-3M melanoma): 1.22 µM; GI50 (MCF7 breast): 0.0836 µM; TGI (MCF7 breast): 2.61 µM; GI50 (MDA-MB-231 breast): 0.733 µM; TGI (MDA-MB-231 breast): 4.61 µM; GI50 (MDA-MB-435): 0.169 µM; TGI (MDA-MB-435): 1.43 µM; GI50 (MOLT-4 leukemia): 0.329 µM; TGI (MOLT-4 leukemia): 2.2 µM; GI50 (NCI-H226 lung): 0.524 µM; TGI (NCI-H226 lung): 1.56 µM; GI50 (NCI-H23 lung): 0.459 µM; TGI (NCI-H23 lung): 1.22 µM; GI50 (NCI-H460 lung): 0.545 µM; TGI (NCI-H460 lung): 1.89 µM; GI50 (NCI-H522 lung): 0.156 µM; TGI (NCI-H522 lung): 0.556 µM; GI50 (NCI/ADR-RES ovarian): 0.423 µM; TGI (NCI/ADR-RES ovarian): 2.37 µM; GI50 (OVCAR-3 ovarian): 0.153 µM; TGI (OVCAR-3 ovarian): 0.677 µM; GI50 (OVCAR-4 ovarian): 0.952 µM; TGI (OVCAR-4 ovarian): 4.9 µM; GI50 (OVCAR-5 ovarian): 0.592 µM; TGI (OVCAR-5 ovarian): 1.84 µM; GI50 (OVCAR-8 ovarian): 0.143 µM; TGI (OVCAR-8 ovarian): 2.68 µM; GI50 (PC-3 prostate): 0.346 µM; TGI (PC-3 prostate): 0.986 µM; GI50 (RPMI-8226 leukemia): 0.0819 µM; TGI (RPMI-8226 leukemia): 0.492 µM; GI50 (RXF 393 renal): 0.4 µM; TGI (RXF 393 renal): 0.802 µM; GI50 (SF-268 CNS): 0.496 µM; TGI (SF-268 CNS): 2.39 µM; GI50 (SF-295 CNS): 0.705 µM; TGI (SF-295 CNS): 2.26 µM; GI50 (SF-539 CNS): 0.523 µM; TGI (SF-539 CNS): 1.41 µM; GI50 (SK-MEL-2 melanoma): 0.453 µM; TGI (SK-MEL-2 melanoma): 1.13 µM; GI50 (SK-MEL-28 melanoma): 0.46 µM; TGI (SK-MEL-28 melanoma): 1.15 µM; GI50 (SK-MEL-5 melanoma): 0.379 µM; TGI (SK-MEL-5 melanoma): 0.759 µM; GI50 (SK-OV-3 ovarian): 1.04 µM; TGI (SK-OV-3 ovarian): 3.49 µM; GI50 (SN12C renal): 0.575 µM; TGI (SN12C renal): 2.57 µM; GI50 (SNB-19 CNS): 0.665 µM; TGI (SNB-19 CNS): 3.54 µM; GI50 (SNB-75 CNS): 1.19 µM; TGI (SNB-75 CNS): 5.39 µM; GI50 (SR leukemia): 0.0753 µM; TGI (SR leukemia): 4.93 µM; GI50 (SW-620 colon): 0.0995 µM; TGI (SW-620 colon): 0.596 µM; GI50 (T-47D breast): 0.58 µM; TGI (T-47D breast): 2.36 µM; GI50 (TK-10 renal): 0.597 µM; TGI (TK-10 renal): 1.41 µM; GI50 (U251 CNS): 0.214 µM; TGI (U251 CNS): 0.694 µM; GI50 (UACC-62 melanoma): 0.28 µM; TGI (UACC-62 melanoma): 1.2 µM; GI50 (UO-31 renal): 0.352 µM; TGI (UO-31 renal): 0.703 µM
